Laboratory results taken from paper PMC10950972, “Relative bioavailability of fedratinib through various alternative oral administration methods in healthy adults” (Cancer Chemotherapy and Pharmacology, 2023).
Where two headings read alike, the source gives them in different places.

Assays:
[1] = Phase 1 relative bioavailability study part 1: plasma pharmacokinetics of fedratinib (2-period crossover); assay type: in vivo, human; details: for AUC(0-t) / AUC(0-inf) / Cmax / Tmax / half-life: human, plasma, po, 400 mg; for half-life: read-out: t½, mean (SD) (converted)
Procedure: Study part 1 was a 2-period, 2-sequence, open-label, crossover design (Fig. 1A). Treatment 1A (reference) consisted of fedratinib 400 mg (4 × 100-mg capsules) administered orally along with approximately 180 mL of a commercially available nutritional supplement (ie, Ensure Plus). Treatment 1B (test) consisted of fedratinib 400 mg dispersed in a nutritional supplement and administered orally. Participants were randomized to receive treatment in one of the following sequences: 1A–1B or 1B–1A. […] No food or beverages (except water and any nutritional supplement administered with the treatment) were allowed for at least 4 h after dosing.
Approximately 1 h before each fedratinib administration, ondansetron oral tablet (film coated) 8 mg was given orally to reduce the potential for fedratinib-related nausea and vomiting. There was a washout period of at least 12 days between each dose of fedratinib. The duration from screening through the follow-up phone call was approximately 10 weeks. Participants resided at the clinical site from days -1 to 23 (study part 1), or days -1 to 35 (study part 2). If a participant discontinued from the study for any reason, an early termination visit was performed, with only the safety assessments scheduled for the day of discharge taking place. Additionally, each participant who discontinued also received a follow-up phone call 4 (± 2) days after completion of the early termination visit.
For study part 1, and part 2 treatments 2A and 2B, blood samples were collected pre-dose (0 h) and at 0.5, 1, 1.5, 2, 3, 4, 6, 8, 12, 24, 48, 72, 120, 168, 192, and 240 h post-dose. For treatment 2C, blood samples were collected pre-dose (0 h) and at 0.5, 1, 1.5, 2, 3, 4, 6, 8, 12, 12.5, 13, 13.5, 14, 15, 16, 18, 24, 48, 72, 120, 168, 192, and 240 h post-dose of the first dose. The plasma concentration of fedratinib was measured using a validated liquid chromatography-tandem mass spectrometry assay with a lower limit of quantification of 1.00 ng/mL [12, 20].
Plasma PK parameters were calculated using noncompartmental methods by a validated PK analysis program (Phoenix® WinNonlin®, v8.3.4 [Certara USA, Inc., Princeton, NJ, USA]) using actual times. The PK parameters determined for fedratinib Cmax, Tmax, AUC from time 0 to the time of the last quantifiable concentration (AUC0–t), AUC from time 0 to infinity (AUC0–∞), and t½. Additionally for treatment 2C, Cmax and Tmax were estimated after both the first dose (Cmax and Tmax) and the second dose (Cmax2 and Tmax2). AUC0–t and AUC0–∞ were estimated from time 0 (the first dose) through 240 h after the first dose. AUC parameters were calculated using the linear-log trapezoidal method.
The sample size for this study was based on consideration of the precision in the comparison of PK parameters, represented by the 90% confidence interval (CI) of the geometric mean ratios of Cmax and AUC of fedratinib. […] Only participants with valid PK data were included in the summary statistics and statistical analysis.
To compare the PK parameters and estimated relative bioavailability of fedratinib following different administration methods in each study part (treatment 1B to 1A, and treatment 2B and 2C to 2A), a linear mixed-effect model with treatment, period, and sequence as fixed effects and participant nested within sequence as a random effect was fitted to the natural log-transformed PK parameters (Cmax, AUC0–t, and AUC0–∞) for use in estimation of effects and construction of CIs.
In study parts 1 and 2, point estimates and 90% CI for the difference between test and reference treatments was exponentiated, and the ratio of geometric means (test/reference) and associated 90% CI was presented on the original scale. For comparison of treatment 2C to 2A in study part 2, the relative bioavailability assessment was based on only AUC. For Tmax, the difference between test and reference was assessed for significance using Wilcoxon signed-rank test. […]

[2] = parameters: method as in PMID 27136912; details: 100 mg and 500 mg doses, healthy volunteers; cited from earlier work
[3] = parameters: method as in earlier work; details: 400 mg dosing in patients with myelofibrosis; range 2–4 h; cited from earlier work
[4] = test system: patients with myelofibrosis resistant/intolerant to prior ruxolitinib; parameters: method as in doi:10.1182/blood-2022-156669; details: fedratinib 400 mg/day, FREEDOM trial, 38 patients; cited from earlier work
[5] = In vitro drug recovery from the nasogastric tube and stability in suspension (data on file); assay type: physicochemical; details: in vitro studies
Text: Reduced exposure was also unlikely to be due to misplacement of the nasogastric tube, as placement was confirmed through X-ray imaging (data on file). The differences in exposure to fedratinib between treatments 2B, 2C, and 2A were likely to be due to interparticipant variability. Furthermore, the 90% CI for the difference in exposure to fedratinib between treatments 2B and 2A fell within the 0.8–1.25 range conventionally defined as having no clinical effect.

[6] = Treatment 1B vs 1A (dispersed oral vs intact capsules), linear mixed-effect model

Cc1cnc(Nc2ccc(OCCN3CCCC3)cc2)nc1Nc1cccc(S(=O)(=O)NC(C)(C)C)c1 [fedratinib]
AUC0–∞ geometric mean ratio (90% CI) [1, 6]: 1.009 (0.939–1.085)
Cmax geometric mean ratio (90% CI) [1, 6]: 1.059 (0.969–1.157)
AUC(0-t) ([1]; Treatment 1A: single 400 mg oral, 4 × 100-mg intact capsules with nutritional supplement, n = 27, read-out: AUC0–t, geometric mean (Geo. %CV)): 20000 ng·h/mL
AUC(0-inf) ([1]; Treatment 1A: single 400 mg oral, 4 × 100-mg intact capsules with nutritional supplement, n = 27, read-out: AUC0–∞, geometric mean (Geo. %CV)): 22100 ng·h/mL
Cmax ([1]; Treatment 1A: single 400 mg oral, 4 × 100-mg intact capsules with nutritional supplement, n = 27, read-out: Cmax, geometric mean (Geo. %CV)): 1320 ng/mL
Tmax ([1]; Treatment 1A: single 400 mg oral, 4 × 100-mg intact capsules with nutritional supplement, n = 27, read-out: Tmax, median (range)): 2.1 h
half-life ([1]; Treatment 1A: single 400 mg oral, 4 × 100-mg intact capsules with nutritional supplement, n = 27): 103 h
AUC(0-t) ([1]; Treatment 1A: single 400 mg oral, intact capsules with nutritional supplement, n = 27, read-out: AUC0–t, geometric mean (statistical analysis)): 20400 ng·h/mL
AUC(0-inf) ([1]; Treatment 1A: single 400 mg oral, intact capsules with nutritional supplement, n = 27, read-out: AUC0–∞, geometric mean (statistical analysis)): 22500 ng·h/mL
Cmax ([1]; Treatment 1A: single 400 mg oral, intact capsules with nutritional supplement, n = 27, read-out: Cmax, geometric mean (statistical analysis)): 1350 ng/mL
Tmax ([1]; Treatment 1A: single 400 mg oral, intact capsules with nutritional supplement, n = 27, read-out: Tmax, median (statistical analysis)): 2.57 h
AUC(0-t) ([1]; Treatment 1B: single 400 mg oral, capsule contents dispersed in nutritional supplement, n = 26, read-out: AUC0–t, geometric mean (Geo. %CV)): 20500 ng·h/mL
AUC(0-t) ([1]; Treatment 1B: single 400 mg oral, capsule contents dispersed in nutritional supplement, n = 26, read-out: AUC0–t, geometric mean (statistical analysis)): 20500 ng·h/mL
AUC(0-inf) ([1]; Treatment 1B: single 400 mg oral, capsule contents dispersed in nutritional supplement, n = 26, read-out: AUC0–∞, geometric mean (Geo. %CV)): 22700 ng·h/mL
AUC(0-inf) ([1]; Treatment 1B: single 400 mg oral, capsule contents dispersed in nutritional supplement, n = 26, read-out: AUC0–∞, geometric mean (statistical analysis)): 22700 ng·h/mL
Cmax ([1]; Treatment 1B: single 400 mg oral, capsule contents dispersed in nutritional supplement, n = 26, read-out: Cmax, geometric mean (Geo. %CV)): 1430 ng/mL
Cmax ([1]; Treatment 1B: single 400 mg oral, capsule contents dispersed in nutritional supplement, n = 26, read-out: Cmax, geometric mean (statistical analysis)): 1430 ng/mL
Tmax ([1]; Treatment 1B: single 400 mg oral, capsule contents dispersed in nutritional supplement, n = 26, read-out: Tmax, median (statistical analysis)): 2 h
half-life ([1]; Treatment 1B: single 400 mg oral, capsule contents dispersed in nutritional supplement, n = 26): 98.7 h
Increases in exposure (Cmax, AUC) when administered directly after food vs 10-h fasted [2]: < 25%
Terminal elimination half-life (t½), fed vs fasted conditions [2]: remained unaffected
Time to peak concentration, median [3]: 3 h
Patients achieving ≥ 35% spleen volume reduction at the end of cycle 6 [4]: 25.7%
Patients achieving ≥ 50% reduction in total symptom score at end of cycle 6 [4]: 44.4%
Patients with best overall response of ≥ 35% spleen volume reduction at any time [4]: 62.9%
Drug recovery from the nasogastric tube [5]: near-complete drug recovery
Stability in suspension [5]: stable up to 1 h in suspension
